Consider 8 compounds from ChEMBL document CHEMBL6074698, “Heteroaryl Glutarimides and Dihydrouracils as Cereblon Ligand Scaffolds for Molecular Glue Degrader Discovery” (ACS Med Chem Lett, 2024).

One data set in a line: in vitro. Conditions: human, MV4-11 cells.
For orientation: half-life means the time needed for the level to fall by half in the phase considered. Compound `O=C1CCC(N2C(=O)c3ccccc3C2=O)C(=O)N1` (stereo not drawn) [THALIDOMIDE] gave a half-life at 24 h of 198 min.

Consider `Nc1cccc2c1CN(C1CCC(=O)NC1=O)C2=O` (stereo not drawn) [LENALIDOMIDE], for which the half-life at 24 h was 720 min. On to `O=C1CCC(c2ccccc2)C(=O)N1` (stereo not drawn), for which the half-life at 24 h was > 1440 min.

The same data set, now with this note: human, mv4-11.
`Nc1cccc2c1C(=O)N(C1CCC(=O)NC1=O)C2=O` (stereo not drawn) [POMALIDOMIDE]: the half-life at 24 h is 720 min.

The nature of a further data set: physchem. Particulars: PBS, pH 7.4.
As usually defined, the logD is lipophilicity at a set pH, counting ionised and neutral species. Read a low logD as a more hydrophilic compound. As to `O=C1CCN(c2ccccc2)C(=O)N1`, the logD is 0.3. For `Nc1cccc2c1C(=O)N(C1CCC(=O)NC1=O)C2=O` (stereo not drawn) [POMALIDOMIDE], the logD came out at 1.3. Compound `O=C1CCC(c2ccc3[nH]ncc3c2)C(=O)N1` (stereo not drawn) displayed a logD of 0.3. Compound `O=C1CCC(N2C(=O)c3ccccc3C2=O)C(=O)N1` (stereo not drawn) [THALIDOMIDE] came in with a logD of 0.7. For the compound `O=C1CCC(c2ccnc3[nH]ncc23)C(=O)N1` (stereo not drawn), the logD was -0.3. In the case of `O=C1CCC(c2ccccc2)C(=O)N1` (stereo not drawn), the logD came out at 0.6. Regarding `O=C1CCC(c2cccc3cc[nH]c23)C(=O)N1` (stereo not drawn), the logD turned out to be 1.4.

The next data set in a line: physchem. Particulars: DMEM buffer, pH 7.4.
Regarding `Nc1cccc2c1C(=O)N(C1CCC(=O)NC1=O)C2=O` (stereo not drawn) [POMALIDOMIDE], the half-life at 48 h was 24 min. In turn, `Nc1cccc2c1CN(C1CCC(=O)NC1=O)C2=O` (stereo not drawn) [LENALIDOMIDE] gave a half-life at 48 h of 54 min.
